In US8071581B2, “Triazolopyridazine protein kinase modulators” (SGX Pharmaceuticals, Inc., priority 2006, dated 2011):

Experiments:
[1] = system: GTL16; assay: GTL16 cell assay (EC50); assay type: cell-based; settings: Homo sapiens, GTL 16
[2] = target: MET kinase (c-MET), kinase domain of human Met (Homo sapiens, UniProt P08581); assay: MET luminescence-based enzyme assay (Kinase-Glo)
[3] = system: GTL16 tumors; assay: GTL16 tumor xenograft model, tumor growth inhibition; assay type: in vivo, female athymic nude mice; settings: for decrease of mean tumor volume compared to vehicle-treated group: last day of treatment
Procedure: GTL16 Tumor Xenograft Model
Female athymic nude mice (nu/nu from Harlan) were 6-8 weeks old with a body weight range of 18-22 g at the beginning of the study. The animals had free access to food and water throughout the study. The mice were housed on irradiated Alpha-dri® Bed-O-Cobs® Laboratory Animal Bedding in static micro isolator caging on a 12-hour light cycle at 70-74° F. and 40-60% humidity. All procedures involving animals were conducted in compliance with the NIH Guide for the Care and Use of Laboratory Animals and all protocols were approved by an Internal Animal Care and Use Committee (IACUC).
Xenografts were initiated from GTL-16 tumor cells cultured and maintained by an internal Cell Biology Department. Each test mouse received a subcutaneous injection of 4×10^6 cells suspended in 100 μL of serum free RPMI media. Tumors were randomized into treatment groups on Day 5 when the average tumor size reached approximately 150 mm^3. Each dose groups contained n=5 mice. Tumor volume was calculated using the formula: Tumor Volume=(w^2×l)/2, where w=width and l=length in mm of the tumor. Tumor weight may be estimated with the assumption that 1 mg is equivalent to 1 mm^3 of tumor volume.
Tumor Growth Inhibition (TGI) Analysis
TGI was calculated from the difference between the mean tumor volumes of vehicle-treated and drug-treated mice, expressed as a percentage.
The MTV is defined as the mean tumor volume (MTV) for the number of animals, n, remaining in the study on that day.

Chain of MET kinase (c-MET), kinase domain of human Met (P08581 1078-1345 limits assumed): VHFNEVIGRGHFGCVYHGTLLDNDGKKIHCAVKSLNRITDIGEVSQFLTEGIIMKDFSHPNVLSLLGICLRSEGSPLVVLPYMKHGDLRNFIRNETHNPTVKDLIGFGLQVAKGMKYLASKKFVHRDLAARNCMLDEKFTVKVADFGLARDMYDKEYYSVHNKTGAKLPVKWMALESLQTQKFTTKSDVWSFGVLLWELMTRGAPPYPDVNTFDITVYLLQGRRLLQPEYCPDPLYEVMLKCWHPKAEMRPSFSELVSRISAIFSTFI

| SMILES | EC50 ([1]; Table 2) [nM] | IC50 [2] [nM] | EC50 ([1]; Table 1) [nM] | other results |
| --- | --- | --- | --- | --- |
| CCc1ccc2nnc(Cc3cc4cc(-c5cnn(C)c5)cnc4cc3F)n2n1 [compound 165] | < 100 | < 100 |  |  |
| Cc1ccc2nnc(Cc3ccc4ncc(-c5cnn(CCN(C)C)c5)cc4c3)n2n1 [compound 168] | < 100 | < 100 |  |  |
| O=C(NCC(F)(F)F)c1ccc(-c2ccc3nnc(Cc4ccc5ncccc5c4)n3n2)cc1 [compound 72] |  | < 100 | 100 to 1000 |  |
| CS(=O)(=O)c1ccc(-c2ccc3nnc(Cc4ccc5ncccc5c4)n3n2)cc1 [compound 5] |  | 100 to 1000 | 100 to 1000 |  |
| Fc1cccc(-c2ccc3nnc(Cc4ccc5ncccc5c4)n3n2)c1 [compound 31] |  | < 100 | < 100 |  |
| Cc1cccc(-c2ccc3nnc(Cc4ccc5ncccc5c4)n3n2)c1 [compound 35] |  | < 100 | 100 to 1000 |  |

Continued, in another order:

| EC50 ([1]; Table 2) [nM] | IC50 [2] [nM] | EC50 ([1]; Table 1) [nM] | SMILES | other results |
| --- | --- | --- | --- | --- |
| < 100 | < 100 |  | Cc1ccc2nnc(Cc3ccc4ncc(-c5cnn(C)c5)cc4c3)n2n1 [compound 124, 3-(1-Methyl-1H-pyrazol-4-yl)-6-(6-methyl-[1,2,4]triazolo[4,3-b]pyridazin-3-ylmethyl)-quinoline] | decrease of mean tumor volume compared to vehicle-treated group ([3]; 1 mg/kg PO Q12H for 14.5 consecutive days, p=0.0079): 32%; decrease of mean tumor volume compared to vehicle-treated group ([3]; 3 mg/kg PO Q12H for 14.5 consecutive days, p<0.0001): 55%; decrease of mean tumor volume compared to vehicle-treated group ([3]; 10 mg/kg PO Q12H for 14.5 consecutive days, p<0.0001): 72%; decrease of mean tumor volume compared to vehicle-treated group ([3]; 30 mg/kg PO Q12H for 14.5 consecutive days, p<0.0001): 79% |
|  | < 100 | < 100 | CNC(=O)c1ccc(-c2ccc3nnc(Cc4ccc5ncccc5c4)n3n2)cc1F [compound 30] | decrease of mean tumor volume compared to vehicle-treated group ([3]; 3 mg/kg PO BID for 14 consecutive days, p<0.2743): 27%; decrease of mean tumor volume compared to vehicle-treated group ([3]; 50 mg/kg IP BID for 14 consecutive days, p<0.0036): 89%; inhibition of growth of GTL16 tumors grown subcutaneously ([3]; IP dose 50 mg/kg BID, 14 consecutive days): statistically significant inhibition |
|  | < 100 | 100 to 1000 | O=S(=O)(NC1CC1)c1ccc(-c2ccc3nnc(Cc4ccc5ncccc5c4)n3n2)cc1 [compound 1] |  |
|  | 100 to 1000 | 100 to 1000 | C=Cc1ccc2nnc(Cc3ccc4ncccc4c3)n2n1 [compound 107] |  |
